Measurements as given in ChEMBL document CHEMBL4130359, “Indazole-based ligands for estrogen-related receptor α as potential anti-diabetic agents” (Eur J Med Chem, 2017).
The source made the active and inactive calls. The calls are words filed in the database; no cut-off is given here.

What was measured:
Rattus norvegicus [1] = test: Toxicity in Zucker rat sub-chronic fa/fa prediabetic model assessed as increase in body weight at 10 mg/kg, po qd during 10 days study; format: organism-based; conditions: in vivo, 240 h
Rattus norvegicus [2] = test: Antidiabetic activity in Zucker rat sub-chronic fa/fa prediabetic model assessed as fasting blood glucose level at 50 mg/kg, po qd for 31 days measured on day 29 post dose (reference value: 163 +/- 9.2 mg/dl); format: functional
Rattus norvegicus [3] = test: Effect on NDUFS1 gene expression in epididymal white adipose tissue of Zucker rat sub-chronic fa/fa prediabetic model at 10 mg/kg, po qd for 15 days by microarray analysis relative to control; format: functional
Rattus norvegicus [4] = test: Toxicity in Zucker rat sub-chronic fa/fa prediabetic model assessed as serum creatinine level at 50 mg/kg, po qd for 31 days measured on day 32 (reference value: 0.71 +/- 0.07 mg/dl); format: organism-based; conditions: in vivo, 744 h
Homo sapiens = species on record: Homo sapiens; test: Inhibition of picrotoxin binding to chloride channel (unknown origin) at 10 uM relative to control
Rattus norvegicus [5] = test: Antidiabetic activity in […] chronic ob/ob model assessed as increase in plasma adiponectin level administered po qd for 31 days measured on day 32 by ELISA; format: functional, organism-based
Rattus norvegicus [6] = test: Antidiabetic activity in Zucker rat sub-chronic fa/fa prediabetic model assessed as increase in serum adiponectin level administered orally once daily for 32 days by ELISA; format: functional, organism-based
Rattus norvegicus [7] = test: Effect on NDUFA12 gene expression in epididymal white adipose tissue of Zucker rat sub-chronic fa/fa prediabetic model at 10 mg/kg, po qd for 15 days by microarray analysis relative to control; format: functional
Rattus norvegicus [8] = test: Toxicity in Zucker rat sub-chronic fa/fa prediabetic model assessed as epididymal white adipose tissue weight at 1 mg/kg, po qd for 31 days measured on day 32 (reference value: 13.9 +/- 0.6 g); format: organism-based; conditions: in vivo, 744 h
Rattus norvegicus [9] = test: Antidiabetic activity in Zucker rat sub-chronic fa/fa prediabetic model assessed as blood glucose AUC (0 to 120 min) at 3 mg/kg, po qd for 31 days measured on day 29 post dose by OGTT (reference value: 41471 +/- 2451 mg.min/dL); format: functional
Rattus norvegicus [10] = test: Toxicity in Zucker rat sub-chronic fa/fa prediabetic model assessed as liver weight at 10 mg/kg, po qd for 31 days measured on day 32 (reference value: 28 +/- 1.6 g); format: organism-based; conditions: in vivo, 744 h
Rattus norvegicus [11] = test: Toxicity in […] model assessed as serum creatinine level at 10 mg/kg, po qd for 31 days measured on day 32 (reference value: 0.55 +/- 0.018 mg/dl); format: organism-based; conditions: in vivo, 744 h
Rattus norvegicus [12] = test: Toxicity in Zucker rat sub-chronic fa/fa prediabetic model assessed as heart weight at 3 mg/kg, po qd for 31 days measured on day 32 (reference value: 1.19 +/- 0.04 g); format: organism-based; conditions: in vivo, 744 h
Rattus norvegicus [13] = format: functional, Zucker
[14] = Cmax in CD-1 mouse at 20 mg/kg administered via oral gavage by LC-MS analysis; format: ADME, organism-based; parameters: dose 20 mg/kg, route oral; conditions: in vivo
Rattus norvegicus [15] = test: Effect on ME1 gene expression in epididymal white adipose tissue of Zucker rat sub-chronic fa/fa prediabetic model at 10 mg/kg, po qd for 15 days by microarray analysis relative to control; format: functional
Rattus norvegicus [16] = test: Toxicity in Zucker rat sub-chronic fa/fa prediabetic model assessed as triglyceride level per gram liver at 1 mg/kg, po qd for 31 days measured on day 32 (reference value: 163.4 +/- 8.3 mg); format: organism-based; conditions: in vivo, 744 h
Rattus norvegicus [17] = test: Antidiabetic activity in […] model assessed as HbA1C level at 50 mg/kg, po qd for 31 days measured on day 32 post dose (reference value: 5.9 +/- 0.18%); format: functional
Rattus norvegicus [18] = test: Toxicity in Zucker rat sub-chronic fa/fa prediabetic model assessed as heart weight at 50 mg/kg, po qd for 31 days measured on day 32 (reference value: 1.19 +/- 0.04 g); format: organism-based; conditions: in vivo, 744 h
Rattus norvegicus [19] = test: Effect on PRKD3 gene expression in epididymal white adipose tissue of Zucker rat sub-chronic fa/fa prediabetic model at 10 mg/kg, po qd for 15 days by microarray analysis relative to control; format: functional
Rattus norvegicus [20] = test: Effect on ATP5F1 gene expression in epididymal white adipose tissue of Zucker rat sub-chronic fa/fa prediabetic model at 10 mg/kg, po qd for 15 days by microarray analysis relative to control; format: functional
Rattus norvegicus [21] = test: Toxicity in Zucker rat sub-chronic fa/fa prediabetic model assessed as food intake at 3 mg/kg, po qd for 29 days measured on day 1 to 29 during compound dosing (reference value: 969 +/- 18 g); format: organism-based; conditions: in vivo, 696 h
Rattus norvegicus [22] = test: Effect on PPARGC1B gene expression in epididymal white adipose tissue of Zucker rat sub-chronic fa/fa prediabetic model at 10 mg/kg, po qd for 15 days by microarray analysis relative to control; format: functional
Rattus norvegicus [23] = test: Effect on SUCLG1 gene expression in epididymal white adipose tissue of Zucker rat sub-chronic fa/fa prediabetic model at 10 mg/kg, po qd for 15 days by microarray analysis relative to control; format: functional
Rattus norvegicus [24] = test: Toxicity in […] model assessed as serum AST level at 3 mg/kg, po qd for 31 days measured on day 32 (reference value: 180 +/- 26 U/L); format: organism-based; conditions: in vivo, 744 h
Rattus norvegicus [25] = test: Toxicity in […] chronic ob/ob model assessed as serum triglyceride level at 50 mg/kg, po qd for 31 days measured on day 32 (reference value: 329 +/- 36 mg/dl); format: organism-based; conditions: in vivo, 744 h
Rattus norvegicus [26] = test: Toxicity in […] model assessed as serum ALT level at 3 mg/kg, po qd for 31 days measured on day 32 (reference value: 127 +/- 9 U/L); format: organism-based; conditions: in vivo, 744 h
[27] = AUC (0 to 24 hrs) in Zucker rat sub-chronic fa/fa prediabetic model at 50 mg/kg, po qd for 26 days measured on day 26 post last dose; format: ADME, organism-based; parameters: dose 50 mg/kg, time < 24 hr, route oral; conditions: in vivo
Rattus norvegicus [28] = test: Antidiabetic activity in […] model assessed as HbA1C level at 3 mg/kg, po qd for 31 days measured on day 32 post dose (reference value: 5.9 +/- 0.18%); format: functional
Rattus norvegicus [29] = test: Toxicity in Zucker rat sub-chronic fa/fa prediabetic model assessed as body weight at 50 mg/kg, po qd for 29 days measured on day 29 post last dose (reference value: 533 +/- 10 g); format: organism-based; conditions: in vivo, 696 h
Rattus norvegicus [30] = test: Toxicity in Zucker rat sub-chronic fa/fa prediabetic model assessed as liver weight at 1 mg/kg, po qd for 31 days measured on day 32 (reference value: 28 +/- 1.6 g); format: organism-based; conditions: in vivo, 744 h
Rattus norvegicus [31] = test: Toxicity in […] chronic ob/ob model assessed as epididymal white adipose tissue weight at 50 mg/kg, po qd for 31 days measured on day 32 (reference value: 3.92 +/- 0.14 g); format: organism-based; conditions: in vivo, 744 h
Rattus norvegicus [32] = test: Increase in ANGPTL4 mRNA expression in epididymal white adipose tissue of Zucker rat sub-chronic fa/fa prediabetic model at 10 mg/kg, po qd for 15 days by RT-PCR method; format: functional, organism-based
[33] = Drug uptake in liver of Zucker rat sub-chronic fa/fa prediabetic model at 12.5 mg/kg, po qd for 11 days; format: ADME, organism-based; conditions: read-out: Drug uptake

Structure (SMILES): CN1CC[C@@H](N2C(=O)S/C(=C\c3ccc4c(cnn4Cc4ccc(Cl)cc4C(F)(F)F)c3)C2=O)[C@H](F)C1
- Activity (Rattus norvegicus [1]): Non-Toxic
- Activity (Rattus norvegicus [2]): 105 mg/dL
- fold change (FC) (Rattus norvegicus [3]): 1.561
- Activity (Rattus norvegicus [4]): 0.54 mg/dL
- inhibition (Homo sapiens): 50%
- Activity (Rattus norvegicus [5]): Dose-dependent effect
- Activity (Rattus norvegicus [6]): Dose-dependent effect
- fold change (FC) (Rattus norvegicus [7]): 1.252
- Activity (Rattus norvegicus [8]): 16.9 g
- Activity (Rattus norvegicus [9]): 26306 mg·min/dL
- Activity (Rattus norvegicus [10]): 18.5 g
- Activity (Rattus norvegicus [11]): 0.44 mg/dL
- Activity (Rattus norvegicus [12]): 1.15 g
- Activity (Rattus norvegicus [13]): 134 mg/dL
- Cmax [14]: 2000 ng/mL
- fold change (FC) (Rattus norvegicus [15]): 2.409
- Activity (Rattus norvegicus [16]): 122 mg
- Activity (Rattus norvegicus [17]): 5%
- Activity (Rattus norvegicus [18]): 1.19 g
- fold change (FC) (Rattus norvegicus [19]): -1.247
- fold change (FC) (Rattus norvegicus [20]): 1.257
- Activity (Rattus norvegicus [21]): 1067 g
- fold change (FC) (Rattus norvegicus [22]): 2.249
- fold change (FC) (Rattus norvegicus [23]): 1.401
- Activity (Rattus norvegicus [24]): 211 U/L
- Activity (Rattus norvegicus [25]): 81 mg/dL
- Activity (Rattus norvegicus [26]): 172 U/L
- AUC at 24 h [27]: 85900 ng·h/mL
- Activity (Rattus norvegicus [28]): 5.7%
- Activity (Rattus norvegicus [29]): 557 g
- Activity (Rattus norvegicus [30]): 21.9 g
- Activity (Rattus norvegicus [31]): 2.95 g
- Activity (Rattus norvegicus [32]): Active
- concentration at 264 h [33]: 12400 ng/g
